# Patent publication US3989730A, “Bone-seeking technetium-99m complex” (priority 1973, dated 1976)
# Like-named read-outs stand apart in the source and are kept apart here.
# Settings: for Blood, % Dose in Whole Organ / Blood, % dose / 1 % body weight / Bone Ave, % Dose/1 % Body weight / Femur, % dose / 1 % body weight / Kidneys, % Dose in Whole Organ / Kidneys, % dose / 1 % body weight / Liver, % Dose in Whole Organ / Liver, % dose / 1 % body weight / Marrow, % Dose in Whole Organ / Marrow, % dose / 1 % body weight / Muscle, % Dose in Whole Organ / Muscle, % dose / 1 % body weight / Pelvis, % dose / 1 % body weight / Spine, % dose / 1 % body weight / Tibia, % dose / 1 % body weight / Urine, % Dose / W. Femur, % Dose in Whole Organ / W. Tibia, % Dose in Whole Organ: 2 Hrs; for Ratio 99mTc/85Sr, Ave Bone / Ratio 99mTc/85Sr, Blood / Ratio 99mTc/85Sr, Femur / Ratio 99mTc/85Sr, Kidneys / Ratio 99mTc/85Sr, Liver / Ratio 99mTc/85Sr, Marrow / Ratio 99mTc/85Sr, Muscle / Ratio 99mTc/85Sr, Pelvis / Ratio 99mTc/85Sr, Spine / Ratio 99mTc/85Sr, Tibia: 2 hours
substance,measurement,setting,value
"99m technetium-tin-1-amino-ethane-1,1-diphosphonate [99mTc-Sn-AEDP]","Blood, % Dose in Whole Organ",AEDP 0.01 mg/kg,1.18 % Dose
same,"Blood, % dose / 1 % body weight",AEDP 0.01 mg/kg,0.168 % Dose/1 % Body weight
same,"Bone Ave, % Dose/1 % Body weight",AEDP 0.01 mg/kg,7.60 % Dose/1 % Body weight
same,"Femur, % dose / 1 % body weight",AEDP 0.01 mg/kg,7.54 % Dose/1 % Body weight
same,"Kidneys, % Dose in Whole Organ",AEDP 0.01 mg/kg,1.59 % Dose
same,"Kidneys, % dose / 1 % body weight",AEDP 0.01 mg/kg,2.72 % Dose/1 % Body weight
same,"Liver, % Dose in Whole Organ",AEDP 0.01 mg/kg,1.69 % Dose
same,"Liver, % dose / 1 % body weight",AEDP 0.01 mg/kg,0.617 % Dose/1 % Body weight
same,"Marrow, % Dose in Whole Organ",AEDP 0.01 mg/kg,0.657 % Dose
same,"Marrow, % dose / 1 % body weight",AEDP 0.01 mg/kg,0.300 % Dose/1 % Body weight
same,"Muscle, % Dose in Whole Organ",AEDP 0.01 mg/kg,0.988 % Dose
same,"Muscle, % dose / 1 % body weight",AEDP 0.01 mg/kg,0.037 % Dose/1 % Body weight
same,"Pelvis, % dose / 1 % body weight",AEDP 0.01 mg/kg,8.53 % Dose/1 % Body weight
same,"Spine, % dose / 1 % body weight",AEDP 0.01 mg/kg,6.20 % Dose/1 % Body weight
same,"Tibia, % dose / 1 % body weight",AEDP 0.01 mg/kg,8.13 % Dose/1 % Body weight
same,"Urine, % Dose",AEDP 0.01 mg/kg,48.39 % Dose
same,"W. Femur, % Dose in Whole Organ",AEDP 0.01 mg/kg,2.34 % Dose
same,"W. Tibia, % Dose in Whole Organ",AEDP 0.01 mg/kg,1.96 % Dose
same,"Blood, % Dose in Whole Organ",AEDP 0.05 mg/kg,1.01 % Dose
same,"Blood, % dose / 1 % body weight",AEDP 0.05 mg/kg,0.144 % Dose/1 % Body weight
same,"Bone Ave, % Dose/1 % Body weight",AEDP 0.05 mg/kg,8.39 % Dose/1 % Body weight
same,"Femur, % dose / 1 % body weight",AEDP 0.05 mg/kg,8.63 % Dose/1 % Body weight
same,"Kidneys, % Dose in Whole Organ",AEDP 0.05 mg/kg,1.13 % Dose
same,"Kidneys, % dose / 1 % body weight",AEDP 0.05 mg/kg,1.83 % Dose/1 % Body weight
same,"Liver, % Dose in Whole Organ",AEDP 0.05 mg/kg,0.806 % Dose
same,"Liver, % dose / 1 % body weight",AEDP 0.05 mg/kg,0.176 % Dose/1 % Body weight
same,"Marrow, % Dose in Whole Organ",AEDP 0.05 mg/kg,0.549 % Dose
same,"Marrow, % dose / 1 % body weight",AEDP 0.05 mg/kg,0.250 % Dose/1 % Body weight
same,"Muscle, % Dose in Whole Organ",AEDP 0.05 mg/kg,1.20 % Dose
same,"Muscle, % dose / 1 % body weight",AEDP 0.05 mg/kg,0.028 % Dose/1 % Body weight
same,"Pelvis, % dose / 1 % body weight",AEDP 0.05 mg/kg,7.82 % Dose/1 % Body weight
same,"Spine, % dose / 1 % body weight",AEDP 0.05 mg/kg,7.80 % Dose/1 % Body weight
same,"Tibia, % dose / 1 % body weight",AEDP 0.05 mg/kg,9.30 % Dose/1 % Body weight
same,"Urine, % Dose",AEDP 0.05 mg/kg,44.21 % Dose
same,"W. Femur, % Dose in Whole Organ",AEDP 0.05 mg/kg,2.41 % Dose
same,"W. Tibia, % Dose in Whole Organ",AEDP 0.05 mg/kg,2.14 % Dose
same,"Blood, % Dose in Whole Organ",AEDP 0.1 mg/kg,0.96 % Dose
same,"Blood, % dose / 1 % body weight",AEDP 0.1 mg/kg,0.137 % Dose/1 % Body weight
same,"Bone Ave, % Dose/1 % Body weight",AEDP 0.1 mg/kg,7.51 % Dose/1 % Body weight
same,"Femur, % dose / 1 % body weight",AEDP 0.1 mg/kg,7.93 % Dose/1 % Body weight
same,"Kidneys, % Dose in Whole Organ",AEDP 0.1 mg/kg,0.913 % Dose
same,"Kidneys, % dose / 1 % body weight",AEDP 0.1 mg/kg,1.28 % Dose/1 % Body weight
same,"Liver, % Dose in Whole Organ",AEDP 0.1 mg/kg,0.309 % Dose
same,"Liver, % dose / 1 % body weight",AEDP 0.1 mg/kg,0.083 % Dose/1 % Body weight
same,"Marrow, % Dose in Whole Organ",AEDP 0.1 mg/kg,0.211 % Dose
same,"Marrow, % dose / 1 % body weight",AEDP 0.1 mg/kg,0.096 % Dose/1 % Body weight
same,"Muscle, % Dose in Whole Organ",AEDP 0.1 mg/kg,1.46 % Dose
same,"Muscle, % dose / 1 % body weight",AEDP 0.1 mg/kg,0.034 % Dose/1 % Body weight
same,"Pelvis, % dose / 1 % body weight",AEDP 0.1 mg/kg,6.24 % Dose/1 % Body weight
same,"Spine, % dose / 1 % body weight",AEDP 0.1 mg/kg,7.36 % Dose/1 % Body weight
same,"Tibia, % dose / 1 % body weight",AEDP 0.1 mg/kg,8.50 % Dose/1 % Body weight
same,"Urine, % Dose",AEDP 0.1 mg/kg,38.8 % Dose
same,"W. Femur, % Dose in Whole Organ",AEDP 0.1 mg/kg,2.38 % Dose
same,"W. Tibia, % Dose in Whole Organ",AEDP 0.1 mg/kg,2.18 % Dose
same,"Blood, % Dose in Whole Organ",AEDP 0.5 mg/kg,1.38 % Dose
same,"Blood, % dose / 1 % body weight",AEDP 0.5 mg/kg,0.197 % Dose/1 % Body weight
same,"Bone Ave, % Dose/1 % Body weight",AEDP 0.5 mg/kg,6.96 % Dose/1 % Body weight
same,"Femur, % dose / 1 % body weight",AEDP 0.5 mg/kg,6.59 % Dose/1 % Body weight
same,"Kidneys, % Dose in Whole Organ",AEDP 0.5 mg/kg,1.11 % Dose
same,"Kidneys, % dose / 1 % body weight",AEDP 0.5 mg/kg,2.11 % Dose/1 % Body weight
same,"Liver, % Dose in Whole Organ",AEDP 0.5 mg/kg,0.216 % Dose
same,"Liver, % dose / 1 % body weight",AEDP 0.5 mg/kg,0.079 % Dose/1 % Body weight
same,"Marrow, % Dose in Whole Organ",AEDP 0.5 mg/kg,0.23 % Dose
same,"Marrow, % dose / 1 % body weight",AEDP 0.5 mg/kg,0.104 % Dose/1 % Body weight
same,"Muscle, % Dose in Whole Organ",AEDP 0.5 mg/kg,0.883 % Dose
same,"Muscle, % dose / 1 % body weight",AEDP 0.5 mg/kg,0.021 % Dose/1 % Body weight
same,"Pelvis, % dose / 1 % body weight",AEDP 0.5 mg/kg,7.93 % Dose/1 % Body weight
same,"Spine, % dose / 1 % body weight",AEDP 0.5 mg/kg,6.05 % Dose/1 % Body weight
same,"Tibia, % dose / 1 % body weight",AEDP 0.5 mg/kg,7.27 % Dose/1 % Body weight
same,"Urine, % Dose",AEDP 0.5 mg/kg,48.85 % Dose
same,"W. Femur, % Dose in Whole Organ",AEDP 0.5 mg/kg,1.74 % Dose
same,"W. Tibia, % Dose in Whole Organ",AEDP 0.5 mg/kg,1.55 % Dose
same,"Ratio 99mTc/85Sr, Ave Bone",0.01 mg/kg,0.735
same,"Ratio 99mTc/85Sr, Blood",0.01 mg/kg,0.406
same,"Ratio 99mTc/85Sr, Femur",0.01 mg/kg,0.720
same,"Ratio 99mTc/85Sr, Kidneys",0.01 mg/kg,4.99
same,"Ratio 99mTc/85Sr, Liver",0.01 mg/kg,3.00
same,"Ratio 99mTc/85Sr, Marrow",0.01 mg/kg,1.27
same,"Ratio 99mTc/85Sr, Muscle",0.01 mg/kg,0.338
same,"Ratio 99mTc/85Sr, Pelvis",0.01 mg/kg,0.794
same,"Ratio 99mTc/85Sr, Spine",0.01 mg/kg,0.689
same,"Ratio 99mTc/85Sr, Tibia",0.01 mg/kg,0.710
same,"Ratio 99mTc/85Sr, Ave Bone",0.05 mg/kg,0.683
same,"Ratio 99mTc/85Sr, Blood",0.05 mg/kg,0.409
same,"Ratio 99mTc/85Sr, Femur",0.05 mg/kg,0.687
same,"Ratio 99mTc/85Sr, Kidneys",0.05 mg/kg,3.30
same,"Ratio 99mTc/85Sr, Liver",0.05 mg/kg,1.32
same,"Ratio 99mTc/85Sr, Marrow",0.05 mg/kg,1.18
same,"Ratio 99mTc/85Sr, Muscle",0.05 mg/kg,0.236
same,"Ratio 99mTc/85Sr, Pelvis",0.05 mg/kg,0.684
same,"Ratio 99mTc/85Sr, Spine",0.05 mg/kg,0.675
same,"Ratio 99mTc/85Sr, Tibia",0.05 mg/kg,0.681
same,"Ratio 99mTc/85Sr, Ave Bone",0.1 mg/kg,0.716
same,"Ratio 99mTc/85Sr, Blood",0.1 mg/kg,0.409
same,"Ratio 99mTc/85Sr, Femur",0.1 mg/kg,0.714
same,"Ratio 99mTc/85Sr, Kidneys",0.1 mg/kg,2.94
same,"Ratio 99mTc/85Sr, Liver",0.1 mg/kg,0.490
same,"Ratio 99mTc/85Sr, Marrow",0.1 mg/kg,0.621
same,"Ratio 99mTc/85Sr, Muscle",0.1 mg/kg,0.205
same,"Ratio 99mTc/85Sr, Pelvis",0.1 mg/kg,0.725
same,"Ratio 99mTc/85Sr, Spine",0.1 mg/kg,0.705
same,"Ratio 99mTc/85Sr, Tibia",0.1 mg/kg,0.721
same,"Ratio 99mTc/85Sr, Ave Bone",0.5 mg/kg,0.644
same,"Ratio 99mTc/85Sr, Blood",0.5 mg/kg,0.280
same,"Ratio 99mTc/85Sr, Femur",0.5 mg/kg,0.628
same,"Ratio 99mTc/85Sr, Kidneys",0.5 mg/kg,2.47
same,"Ratio 99mTc/85Sr, Liver",0.5 mg/kg,0.459
same,"Ratio 99mTc/85Sr, Marrow",0.5 mg/kg,0.500
same,"Ratio 99mTc/85Sr, Muscle",0.5 mg/kg,0.140
same,"Ratio 99mTc/85Sr, Pelvis",0.5 mg/kg,0.692
same,"Ratio 99mTc/85Sr, Spine",0.5 mg/kg,0.614
same,"Ratio 99mTc/85Sr, Tibia",0.5 mg/kg,0.632
